Test results reported in patent US20050152835A1, “Technetium-99M glucarate methods of use for monitoring tissues” (priority 2003, published 2005).

What was measured:
[1] = tested on: infarcted hearts; conditions: isoproterenol-induced myocardial infarction; cited from earlier work
[2] = tested on: MCF7/S tumor xenograft; test: FASTSPECT dynamic imaging and tumor washout kinetics, drug-sensitive xenograft; type: in vivo, SCID mice
Description: (§1) Tumor cell lines used. MCF7/S: Cells are parental, drug (doxorubicin) sensitive, breast carcinoma cells. MCF7/D40: Cells were generated in vitro by successive culturing parental MCF7 cells in slowly increasing concentrations of doxorubicin with a total selection time of 31 months. Twenty-eight SCID mice were studied. MCF7/S or MCF7/D40 tumors were grown for 10-14 days after subcutaneous injection of 1×10^6 cells into the right thigh. Groups of mice with the xenografted tumors included: (MCF7/S group: MIBI: n=9; GLA: n=8) and (MCF7/D40 group: MIBI: n=6; GLA: n=5).
(§2) The dynamic imaging system SPECT consisted of 24 small modular gamma cameras. Each modular camera consists of a 10 cm×10 cm NaI(Tl) scintillation crystal, 4 square (5 cm×5 cm) Hamamatsu photomultiplier tubes. The system included a cylindrical aperture with twenty four 1-mm diameter pinholes drilled in the aperture. A point source in the center of the field of view is projected simultaneously to the center of each camera. Total magnification is 3.5 in a 3.0 cm×3.2 cm×3.2 cm field of view. The spatial resolution of the system is about 1.0 mm, with a sensitivity of 13.3 cps/μCi.
(§3) ^99mTc-GLA or ^99mTc-MIBI (5-8 mCi, 185-296 MBq) was injected via a jugular vein catheter. Dynamic images were acquired for 2 hours. Twenty-four projections were obtained, one from each camera. Each scintillation event within the camera's NaI crystal was registered as the digitized outputs from the camera's four photomultiplier tubes. The four photomultiplier outputs were compared to a 20-bit look-up table derived from a calibration procedure that involved moving a collimated source across the camera face.
(§4) Tumor image reconstruction was performed using 100 iterations of the maximum-likelihood expectation-maximization (ML-EM) algorithm. Using SlicerDicer software, three-dimensional images were computed to provide images in a 33×49×49 voxels format, and generate tomographic transaxial, coronal and sagittal slices with one-pixel thickness (1.0 mm). Regions of interest (ROI) over the tumors were created and applied to the dynamic images for determining time-activity curves. The percent washout rate relative to the peak uptake of the tumors were calculated.

[3] = tested on: MCF7/D40 tumor xenograft; test: FASTSPECT dynamic imaging and tumor washout kinetics, drug-resistant (Pgp positive) xenograft; type: in vivo, SCID mice
Description: as §1, §2, §3, §4

[4] = tested on: MCF7/S tumors; test: Biodistribution in mice bearing MCF7/S tumors; type: in vivo, SCID mice
Description: as §1, §3
Tumors and organs were harvested and counted in a dose calibrator. The percent injected dose per gram (% ID/g) was calculated. Membrane preparations made from MCF7/S and MCF7/D40 tumors were immunoblotted with the mouse monoclonal antibody C219 against Pgp followed by a secondary antibody, which was detected by chemiluminescence. […] No immunodetectable MDR1 Pgp was presented in MCF7/S cells.

[5] = tested on: BT20 tumors; conditions: cited from earlier work
[6] = Table 2, MCF7/S mice, 2 hours after injection
[7] = Table 4 (Example 3), MCF7/S mice

For ^99mTc-glucarate, the “uptake in infarcted hearts relative to normal rats” value [1] is listed as 6 times, the “two-hour fractional washout (% peak activity)” value [2] is listed as 72.8±3.1% and the “time after injection at which tumor was first visualized/detected” value ([2]; FASTSPECT) is listed as ≤ 5 min. For the same substance, the “time after injection until which tumor stayed visualized/detectable” value ([2]; FASTSPECT, 120 min acquisition) was “at least 120 min”, the “two-hour fractional washout (% peak activity)” value [3] was 71.9±2.9% and the “tumor-to-muscle ratio relative to that for 99mTc-sestamibi (fold higher)” value ([4]; MCF7/S tumors, 2 hours after injection) was 9.4 fold. For the same substance, the “Biodistribution, blood” value [4, 6] was 1.13 ± 0.16 % ID/gm, the “Biodistribution, heart” value [4, 6] was 0.64 ± 0.08 % ID/gm and the “Biodistribution, kidneys” value [4, 6] was 22.70 ± 1.38 % ID/gm. For the same substance, the “Biodistribution, liver” value [4, 6] was 2.04 ± 0.37 % ID/gm, the “Biodistribution, lung” value [4, 6] was 1.08 ± 0.10 % ID/gm and the “Biodistribution, muscle” value [4, 6] was 0.27 ± 0.02 % ID/gm. For the same substance, the “Biodistribution, tumor” value [4, 6] was 1.15 ± 0.17 % ID/gm, the “Biodistribution, blood” value [4, 7] was 1.19 ± 0.17 % ID/g and the “Biodistribution, heart” value [4, 7] was 0.70 ± 0.09 % ID/g. The “Biodistribution, kidneys” value [4, 7] was 22.59 ± 1.38 % ID/g, the “Biodistribution, liver” value [4, 7] was 2.10 ± 0.35 % ID/g and the “Biodistribution, lung” value [4, 7] was 1.15 ± 0.11 % ID/g. The “Biodistribution, muscle” value [4, 7] was 0.29 ± 0.02 % ID/g, the “Biodistribution, tumor” value [4, 7] was 1.16 ± 0.17 % ID/g and the Tumor/Blood ratio [4, 7] was 1.13 ± 0.23. For the same substance, the Tumor/Muscle ratio [4, 7] was 4.37 ± 0.89, the mean tumor-to-muscle ratio ([4]; drug-sensitive tumors (MCF7/S)) was 4.5 and the “tumor uptake compared with 99mTc-DTPA” value ([5]; BT20 breast tumors) was “significantly greater”. The “tumor to non-tumor (shoulder region tissue) ratio” value ([5]; twelve hours after intravenous injection) was 20.53 and the “tumor uptake compared with 99mTc-sestamibi” value ([5]; xenografted BT20 tumors) was “significantly higher uptake”.
